Source: PubChem BioAssay (NCI)
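Values below derive from 48-hour exposures of cells grown in 96-well plates, with endpoints linearly interpolated between the two concentrations bracketing the appropriate inhibition level. TGI: total growth inhibition.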

Columns and labels:
Test in all cases: NCI-60 cell line screen, 48 h
OVCAR-3 ovarian = tested on: OVCAR-3 ovarian
CAKI-1 renal = tested on: CAKI-1 renal
NCI-H460 lung = tested on: NCI-H460 lung
SW-620 colon = tested on: SW-620 colon
A549 NSCLC = tested on: A549 NSCLC
LOX IMVI melanoma = tested on: LOX IMVI melanoma
M14 melanoma = tested on: M14 melanoma
SNB-19 CNS = tested on: SNB-19 CNS
SN12C renal = tested on: SN12C renal
HL-60(TB) leukemia = tested on: HL-60(TB) leukemia
NCI/ADR-RES ovarian = tested on: NCI/ADR-RES ovarian
HCT-116 colon = tested on: HCT-116 colon
MCF7 breast = tested on: MCF7 breast
SF-539 CNS = tested on: SF-539 CNS
NCI-H23 lung = tested on: NCI-H23 lung
OVCAR-5 ovarian = tested on: OVCAR-5 ovarian
MDA-MB-231 breast = tested on: MDA-MB-231 breast
OVCAR-8 ovarian = tested on: OVCAR-8 ovarian
HCC-2998 colon = tested on: HCC-2998 colon
K-562 leukemia = tested on: K-562 leukemia
UO-31 renal = tested on: UO-31 renal
SK-MEL-2 melanoma = tested on: SK-MEL-2 melanoma
HT29 colon = tested on: HT29 colon
COLO 205 colon = tested on: COLO 205 colon
T-47D breast = tested on: T-47D breast
IGROV1 ovarian = tested on: IGROV1 ovarian
EKVX NSCLC = tested on: EKVX NSCLC
PC-3 prostate = tested on: PC-3 prostate
MOLT-4 leukemia = tested on: MOLT-4 leukemia
TK-10 renal = tested on: TK-10 renal
SF-268 CNS = tested on: SF-268 CNS
RXF 393 renal = tested on: RXF 393 renal
SK-OV-3 ovarian = tested on: SK-OV-3 ovarian
MALME-3M melanoma = tested on: MALME-3M melanoma
HOP-92 NSCLC = tested on: HOP-92 NSCLC
DU-145 prostate = tested on: DU-145 prostate
SK-MEL-28 melanoma = tested on: SK-MEL-28 melanoma
SR leukemia = tested on: SR leukemia
SNB-75 CNS = tested on: SNB-75 CNS
OVCAR-4 ovarian = tested on: OVCAR-4 ovarian
ACHN renal = tested on: ACHN renal
MDA-MB-435 = tested on: MDA-MB-435
A498 renal = tested on: A498 renal
KM12 colon = tested on: KM12 colon
HCT-15 colon = tested on: HCT-15 colon
UACC-257 melanoma = tested on: UACC-257 melanoma
HOP-62 NSCLC = tested on: HOP-62 NSCLC
U251 CNS = tested on: U251 CNS
SF-295 CNS = tested on: SF-295 CNS
UACC-62 melanoma = tested on: UACC-62 melanoma
NCI-H226 lung = tested on: NCI-H226 lung
NCI-H522 lung = tested on: NCI-H522 lung
786-0 renal = tested on: 786-0 renal
CCRF-CEM leukemia = tested on: CCRF-CEM leukemia
MDA-N = tested on: MDA-N
RPMI-8226 leukemia = tested on: RPMI-8226 leukemia
SK-MEL-5 melanoma = tested on: SK-MEL-5 melanoma
HS 578T breast = tested on: HS 578T breast

Measured: TGI

COc1ccc2nc3ccc(OC)cc3c(S(=O)(=O)Cc3ccc([N+](=O)[O-])cc3)c2c1
not listed: RPMI-8226 leukemia | SK-MEL-5 melanoma | HS 578T breast
> 100 µM: all other assays above

COc1cc(-c2oc3c(OC)c(O)c(OC)c(O)c3c(=O)c2OC)cc(O)c1OC
57.9 µM: HL-60(TB) leukemia
52.7 µM: NCI/ADR-RES ovarian
36.2 µM: MDA-N
99.4 µM: MALME-3M melanoma
77.6 µM: MDA-MB-435
53.6 µM: SF-295 CNS
49.3 µM: SK-OV-3 ovarian
42 µM: SNB-75 CNS
71.8 µM: UACC-62 melanoma
76.8 µM: NCI-H23 lung
63.3 µM: OVCAR-3 ovarian
75.4 µM: A498 renal
55.6 µM: SK-MEL-5 melanoma
79.4 µM: RXF 393 renal | CCRF-CEM leukemia
45.4 µM: SF-539 CNS
not listed: NCI-H460 lung | SF-268 CNS | SR leukemia | HS 578T breast
> 100 µM: all other assays above

CC1(C)N=C(C(N)=O)c2ncn(-c3ccccc3)c2N1
not listed: UO-31 renal | MOLT-4 leukemia | HOP-92 NSCLC
> 100 µM: all other assays above

COc1ccc2nc3cccc([N+](=O)[O-])c3c(NCCO)c2c1
0.0274 µM: RXF 393 renal
0.875 µM: SNB-19 CNS
1.03 µM: SF-295 CNS
0.336 µM: SNB-75 CNS
0.0982 µM: PC-3 prostate
0.00862 µM: SW-620 colon
0.0909 µM: A549 NSCLC
0.0234 µM: MDA-N
0.0706 µM: CAKI-1 renal
0.153 µM: OVCAR-4 ovarian
0.0532 µM: OVCAR-8 ovarian
0.0337 µM: MALME-3M melanoma
0.0792 µM: SN12C renal
0.752 µM: SK-OV-3 ovarian
0.0368 µM: SK-MEL-2 melanoma
0.805 µM: T-47D breast
0.0419 µM: OVCAR-3 ovarian
0.479 µM: IGROV1 ovarian
2.68 µM: CCRF-CEM leukemia
0.0624 µM: NCI-H23 lung
0.0668 µM: HOP-62 NSCLC
0.149 µM: KM12 colon
0.0939 µM: NCI/ADR-RES ovarian
0.019 µM: RPMI-8226 leukemia
0.296 µM: MCF7 breast
0.0181 µM: K-562 leukemia
0.00494 µM: LOX IMVI melanoma
0.0504 µM: UO-31 renal | ACHN renal
0.122 µM: U251 CNS
0.125 µM: HT29 colon
0.043 µM: NCI-H522 lung
0.0233 µM: NCI-H460 lung
0.0648 µM: EKVX NSCLC
0.0395 µM: HCC-2998 colon
0.0644 µM: HS 578T breast
0.176 µM: NCI-H226 lung
0.0146 µM: COLO 205 colon
0.0649 µM: 786-0 renal
0.0943 µM: HL-60(TB) leukemia
0.0499 µM: HOP-92 NSCLC
0.111 µM: SF-268 CNS
0.041 µM: MDA-MB-231 breast
0.0481 µM: HCT-15 colon | UACC-62 melanoma
0.0698 µM: OVCAR-5 ovarian
0.142 µM: TK-10 renal
0.0186 µM: MDA-MB-435
0.0626 µM: SK-MEL-28 melanoma
0.052 µM: SF-539 CNS
0.117 µM: A498 renal
0.0619 µM: DU-145 prostate
0.0614 µM: SK-MEL-5 melanoma
0.0813 µM: UACC-257 melanoma
0.0228 µM: M14 melanoma
0.00545 µM: HCT-116 colon
